Measured values taken from patent publication US9834541B2, “2-aminopyridine compounds” (Merck Patent GmbH, priority 2012, dated 2017).

Columns and labels:
Wnt pathway [1] = assay: Cellular assay for Wnt pathway activity, LS174T-shl-fLuc clone 5 (LS174T-L5) luciferase reporter assay; format: cell-based; conditions: Homo sapiens; LS174T TCF luciferase reporter cells, 24 hours incubation
Procedure, shortened: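 LS174T human colon cancer cells stably carrying a 16×TCF/LEF-driven short-half-life firefly luciferase reporter were treated with compounds at 30 μM to 1 nM for 24 hours. Luciferase luminescence normalized to vehicle control; IC50 from curve fitting.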

[2] = CLint (intrinsic clearance) assay, liver microsomal incubation; format: in vitro ADME, human; conditions: for microsomal CLint at 0.8 μM: liver microsomes, pH 7.4, human hepatic microsomes, 0.5 mg/mL protein, class symbols
Procedure, shortened: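 Human liver microsomes (0.5 mg/mL protein) in 0.1 M potassium phosphate pH 7.4 with 1 mM MgCl2 were incubated at 37 °C with NADPH and compound (diluted to 0.8 μM), with no-cofactor controls. Samples were acetonitrile-quenched at 0–30 min. CLint (μL/min/mg protein) = k·1000/protein concentration, from the LC-MS/MS peak-area decline slope.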

Wnt pathway [3] = conditions: see Table A on page 93 of WO 2010/041054; cited from earlier work

O=C1NCCC12CCN(c1c(Cl)cncc1-c1ccccc1)CC2 [Compound E60, 8-(3-Chloro-5-phenyl-pyridin-4-yl)-2,8-diaza-spiro[4.5]decan-1-one, reference compound]
IC50 (Wnt pathway [1]): 230 nM
microsomal CLint at 0.8 μM [2]: ≥ 150 µL/min/mg
human hepatic microsomal intrinsic clearance (CLint), in words ([2]; statement in the related-art section): high
inhibitory activity, in words (Wnt pathway [3]): promising

CC(C)n1cc(-c2ccc(-c3cnc(N)c(Cl)c3N3CCC4(CCNC4=O)CC3)cc2)cn1 [Compound 69, 8-{2-Amino-3-chloro-5-[4-(1-isopropyl-1H-pyrazol-4-yl)-phenyl]-pyridin-4-yl}-2,8-diaza-spiro[4.5] decan-1-one]
IC50 (Wnt pathway [1]): 52 nM
microsomal CLint at 0.8 μM [2]: 50 to 100 µL/min/mg

Nc1ncc(-c2ccc(-c3cnn(CCO)c3)cc2)c(N2CCC3(CC2)CNC(=O)O3)c1Cl [Compound 34, 8-(2-Amino-3-chloro-5-{4-[1-(2-hydroxy-ethyl)-1H-pyrazol-4-yl]-phenyl}-pyridin-4-yl)-1-oxa-3,8-diaza-spiro[4.5] decan-2-one]
IC50 (Wnt pathway [1]): 370 nM
microsomal CLint at 0.8 μM [2]: 10 to 50 µL/min/mg

CN1c2ccc(-c3cnc(N)c(C(F)(F)F)c3N3CCC4(CCNC4=O)CC3)cc2CS1(=O)=O [Compound 53, 8-[2-Amino-5-(1-methyl-2,2-dioxo-2,3-dihydro-1H-2I6-benzo[c]isothiazol-5-yl)-3-trifluoro-methyl-pyridin-4-yl]-2,8-diaza-spiro[4.5] decan-1-one]
IC50 (Wnt pathway [1]): 8.29 nM
microsomal CLint at 0.8 μM [2]: 50 to 100 µL/min/mg

CN1c2ccc(-c3cnc(N)c(C(F)(F)F)c3N3CCC4(CC3)CNC(=O)O4)cc2CS1(=O)=O [Compound 42, 8-[2-Amino-5-(1-methyl-2,2-dioxo-2,3-dihydro-1H-2I6-benzo[c]isothiazol-5-yl)-3-trifluoro-methyl-pyridin-4-yl]-1-oxa-3,8-diaza-spiro[4.5] decan-2-one]
IC50 (Wnt pathway [1]): 11 nM
microsomal CLint at 0.8 μM [2]: 10 to 50 µL/min/mg

Nc1ncc(-c2ccc3c(N)n[nH]c3c2)c(N2CCC3(CCNC3=O)CC2)c1Cl [Compound 3, 8-[2-Amino-5-(3-amino-1H-indazol-6-yl)-3-chloro-pyridin-4-yl]-2,8-diaza-spiro[4.5] decan-1-one]
IC50 (Wnt pathway [1]): 120 nM
microsomal CLint at 0.8 μM [2]: < 10 µL/min/mg

Nc1ncc(-c2ccc(N3CCOCC3)cc2)c(N2CCC3(CCNC3=O)CC2)c1Cl [Compound 18, 8-[2-Amino-3-chloro-5-(4-morpholin-4-yl-phenyl)-pyridin-4-yl]-2,8-diaza-spiro[4.5] decan-1-one]
IC50 (Wnt pathway [1]): 120 nM
microsomal CLint at 0.8 μM [2]: 50 to 100 µL/min/mg

CCN1c2ccc(-c3cnc(N)c(Cl)c3N3CCC4(CCNC4=O)CC3)cc2CS1(=O)=O [Compound 58, 8-[2-Amino-3-chloro-5-(1-ethyl-2,2-dioxo-2,3-dihydro-1H-2I6-benzo[c]isothiazol-5-yl)-pyridin-4-yl]-2,8-diaza-spiro[4.5] decan-1-one]
IC50 (Wnt pathway [1]): 7.6 nM
microsomal CLint at 0.8 μM [2]: ≥ 150 µL/min/mg

Cn1ccc(-c2ccc(-c3cnc(N)c(Cl)c3N3CCC4(CCNC4=O)CC3)cc2)n1 [Compound 22, 8-(2-Amino-3-chloro-5-(4-(1-methyl-1H-pyrazol-3-yl)phenyl)pyridin-4-yl)-2,8-diazaspiro[4.5]decan-1-one]
IC50 (Wnt pathway [1]): 38 nM
microsomal CLint at 0.8 μM [2]: 10 to 50 µL/min/mg

CN1C(=O)Cc2cc(-c3cnc(N)c(Cl)c3N3CCC4(CCNC4=O)CC3)ccc21 [Compound 15, 8-[2-Amino-3-chloro-5-(1-methyl-2-oxo-2,3-dihydro-1H-indol-5-yl)-pyridin-4-yl]-2,8-diaza-spiro[4.5] decan-1-one]
IC50 (Wnt pathway [1]): 54 nM
microsomal CLint at 0.8 μM [2]: 10 to 50 µL/min/mg

CS(=O)(=O)CCn1cc(-c2ccc(-c3cnc(N)c(Cl)c3N3CCC4(CCNC4=O)CC3)cc2)cn1 [Compound 59, 8-(2-Amino-3-chloro-5-{4-[1-(2-methanesulfonyl-ethyl)-1H-pyrazol-4-yl]-phenyl}-pyridin-4-yl)-2,8-diaza-spiro[4.5] decan-1-one]
IC50 (Wnt pathway [1]): 45 nM
microsomal CLint at 0.8 μM [2]: 10 to 50 µL/min/mg

Nc1ncc(-c2ccc3c(c2)CCC(=O)N3)c(N2CCC3(CC2)CC(=O)NC3=O)c1Cl [Compound 13, 8-[2-Amino-3-chloro-5-(2-oxo-1,2,3,4-tetrahydro-quinolin-6-yl)-pyridin-4-yl]-2,8-diaza-spiro[4.5] decane-1,3-dione]
IC50 (Wnt pathway [1]): 14 nM
microsomal CLint at 0.8 μM [2]: < 10 µL/min/mg

Nc1ncc(-c2ccc3c(c2)NC(=O)C3)c(N2CCC3(CCNC3=O)CC2)c1Cl [Compound 7, 6-(6-Amino-5-chloro-4-(1-oxo-2,8-diazaspiro[4.5]decan-8-yl)pyridin-3-yl)indolin-2-one]
IC50 (Wnt pathway [1]): 63 nM
microsomal CLint at 0.8 μM [2]: 10 to 50 µL/min/mg

Cn1cc(-c2ccc(-c3cnc(N)c(Cl)c3N3CCC4(CCNC4=O)CC3)cc2)cn1 [Compound 16, 8-(2-Amino-3-chloro-5-(4-(1-methyl-1H-pyrazol-4-yl)phenyl)pyridin-4-yl)-2,8-diazaspiro[4.5]decan-1-one]
IC50 (Wnt pathway [1]): 25 nM
microsomal CLint at 0.8 μM [2]: 100 to 150 µL/min/mg

CCn1ncc2ccc(-c3cnc(N)c(Cl)c3N3CCC4(CCNC4=O)CC3)cc21 [Compound 71, 8-[2-Amino-3-chloro-5-(1-ethyl-1H-indazol-6-yl)-pyridin-4-yl]-2,8-diaza-spiro[4.5] decan-1-one]
IC50 (Wnt pathway [1]): 181 nM
microsomal CLint at 0.8 μM [2]: 10 to 50 µL/min/mg

Cn1cc(-c2ccc(-c3cnc(N)c(F)c3N3CCC4(CC3)CNC(=O)O4)cc2)cn1 [Compound 63, 8-{2-Amino-3-fluoro-5-[4-(1-methyl-1H-pyrazol-4-yl)-phenyl]-pyridin-4-yl}-1-oxa-3,8-diaza-spiro[4.5] decan-2-one]
IC50 (Wnt pathway [1]): 237 nM
microsomal CLint at 0.8 μM [2]: 10 to 50 µL/min/mg

CN1c2ccc(-c3cnc(N)c(Cl)c3N3CC[C@@H](C#N)[C@H](O)C3)cc2CS1(=O)=O [Compound 66, (3S,4S)-2′-Amino-3′-chloro-3-hydroxy-5′-(1-methyl-2,2-dioxo-2,3-dihydro-1H-2I6-benzo[c]isothiazol-5-yl)-3,4,5,6-tetrahydro-2H-[1,4′] bipyridinyl-4-carbonitrile]
IC50 (Wnt pathway [1]): 403 nM
microsomal CLint at 0.8 μM [2]: 10 to 50 µL/min/mg

Nc1ncc(-c2ccc3c(c2)CCC(=O)N3)c(N2CCC3(CCNC3=O)CC2)c1Cl [Compound 19, 6-[6-Amino-5-chloro-4-(1-oxo-2,8-diaza-spiro[4.5]dec-8-yl)-pyridin-3-yl]-3,4-dihydro-1H-quinolin-2-one]
IC50 (Wnt pathway [1]): 75 nM
microsomal CLint at 0.8 μM [2]: 10 to 50 µL/min/mg
